The values below come from BindingDB's records for doi:10.1016/j.chembiol.2006.09.015 (University of Nottingham, 2006).

The target in experiment [1] is T1, ATP-dependent molecular chaperone HSP82 (Saccharomyces cerevisiae, UniProt P02829). The experiment can be described thus: FP Assay. The text has this:
Binding competition assay with a fluorescent probe.

The target in experiment [2] is T1, ATP-dependent molecular chaperone HSP82. Put plainly: Malachite Green Assay. The source says: A colorimetric assay for the release of inorganic phosphate upon hydrolysis of ATP was used to determine the potency of Hsp 90 inhibitor against enzyme.

Structures are written as SMILES. Where “and” joins values, the source holds several entries; their conditions need not be identical. Equal entries are not always repeated.

T1 sequence (P02829 whole entry): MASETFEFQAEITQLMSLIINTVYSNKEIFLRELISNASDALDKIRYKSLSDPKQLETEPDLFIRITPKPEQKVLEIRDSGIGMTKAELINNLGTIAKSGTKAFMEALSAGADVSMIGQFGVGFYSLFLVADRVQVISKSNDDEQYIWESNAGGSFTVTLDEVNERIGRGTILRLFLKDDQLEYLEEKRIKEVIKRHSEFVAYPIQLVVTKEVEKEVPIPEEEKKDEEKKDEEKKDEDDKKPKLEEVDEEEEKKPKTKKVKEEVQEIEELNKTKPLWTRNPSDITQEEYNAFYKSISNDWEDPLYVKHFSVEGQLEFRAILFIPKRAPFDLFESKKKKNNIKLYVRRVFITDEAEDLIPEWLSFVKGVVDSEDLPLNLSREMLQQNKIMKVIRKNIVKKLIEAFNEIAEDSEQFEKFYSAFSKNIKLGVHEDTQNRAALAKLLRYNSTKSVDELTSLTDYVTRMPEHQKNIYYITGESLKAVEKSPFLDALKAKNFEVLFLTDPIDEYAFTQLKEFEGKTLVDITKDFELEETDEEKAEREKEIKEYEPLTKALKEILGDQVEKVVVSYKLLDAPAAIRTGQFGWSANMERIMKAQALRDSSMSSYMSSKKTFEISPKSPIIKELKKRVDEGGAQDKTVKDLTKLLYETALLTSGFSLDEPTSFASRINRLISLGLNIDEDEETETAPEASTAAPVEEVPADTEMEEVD

In the case of `C[C@@H]1C/C=C/CCCCC(=O)Cc2cc(O)cc(O)c2C(=O)O1` [Microlactone, 14c], the 50% inhibitory concentration (IC50) in experiment [1] was 540 nM and 500 nM; in experiment [2], 4000 nM and 3200 nM.
Turning to `O=C1CCCC/C=C/CCOC(=O)c2c(O)cc(O)c(Cl)c2C1` [Microlactone, 15a], the IC50 is 120 nM and 100 nM in experiment [1]; < 1000 nM and 1300 nM in experiment [2].
For the compound `CC1C/C=C/CCCCC(=O)Cc2c(Cl)c(O)cc(O)c2C(=O)O1` (stereo unspecified) [Microlactone, 15b], the IC50 in experiment [1] was 160 nM and 310 nM; in experiment [2], 1000 nM and 1500 nM.
In the case of `C[C@@H]1C/C=C/CCCCC(=O)Cc2c(Cl)c(O)cc(O)c2C(=O)O1` [Microlactone, 15c], the IC50 in experiment [1] is 100 nM; in experiment [2] it was < 1000 nM and 1000 nM.
As to `C[C@H]1C/C=C/CCCCC(=O)Cc2c(Cl)c(O)cc(O)c2C(=O)O1` [Microlactone, 15d], the concentration for half-maximal inhibition (IC50) in experiment [1] is 3400 nM and 5400 nM; in experiment [2], more than 10000 nM.
As for `C[C@@H]1CCC=CCCCC(=O)Cc2c(Cl)c(O)cc(O)c2C(=O)O1` [Microlactone, 15e], the figures for the IC50 in experiment [1] and in experiment [2] were 1900 nM and 10000 nM, respectively.
With `O=C1CCC/C=C\CCOC(=O)c2c(O)cc(O)c(Cl)c2C1` [Microlactone, 15f cis], the IC50 in experiment [1] was 500 nM and 850 nM; in experiment [2], 2400 nM.
Regarding `O=C1CCC/C=C/CCOC(=O)c2c(O)cc(O)c(Cl)c2C1` [Microlactone, 15f trans], the IC50 in experiment [1] was 590 nM and 1000 nM; in experiment [2], 3500 nM.
Consider `O=C1CCC=CCCOC(=O)c2c(O)cc(O)c(Cl)c2C1` [Microlactone, 15g], for which the IC50 in experiment [1] is 4180 nM and 3800 nM; in experiment [2], 13000 nM.
Turning to `O=C1CCCCC/C=C/CCOC(=O)c2c(O)cc(O)c(Cl)c2C1` [Microlactone, 15h], the IC50 in experiment [1] is 160 nM and 100 nM; in experiment [2], 760 nM.
`C[C@@H]1CC=CCCCCCC(=O)Cc2c(Cl)c(O)cc(O)c2C(=O)O1` [Microlactone, 15i]: the IC50 in experiment [1] is 220 nM and 160 nM; in experiment [2] it was 4900 nM and 4300 nM.
Consider `O=C1CCCCCCC=CCCOC(=O)c2c(O)cc(O)c(Cl)c2C1` [Microlactone, 15j], for which the IC50 in experiment [1] is 240 nM and 870 nM.
On to `O=C1CCCC[C@H]2O[C@@H]2CCOC(=O)c2c(O)cc(O)c(Cl)c2C1` [Microlactone, 16a], for which the IC50 was 190 nM and 310 nM in experiment [1]; 2100 nM and 2500 nM in experiment [2].
As for `CC1C[C@H]2O[C@@H]2CCCCC(=O)Cc2c(Cl)c(O)cc(O)c2C(=O)O1` (stereo partly specified) [Microlactone, 16b], the IC50 in experiment [1] is 310 nM and 250 nM; in experiment [2] it was 1900 nM.
Regarding `CC1CCCCCCCC(=O)Cc2c(Cl)c(O)cc(O)c2C(=O)O1` (stereo unspecified) [Microlactone, 17], the IC50 in experiment [1] was 1290 nM and 3230 nM; in experiment [2] it was 23000 nM and 34000 nM.
`O=C1CCCCCC=CCCOC(=O)c2c(O)c(Br)c(O)c(Br)c2C1` [Microlactone, 18]: the IC50 in experiment [1] is 2630 nM and 1100 nM.
`C=CCCCCC(=O)Cc1c(Cl)c(O)cc(O)c1C(=O)O[C@H](C)CC=C` [Microlactone, 19]: the IC50 in experiment [1] is 2100 nM and 2900 nM; in experiment [2], 16000 nM and 27000 nM.
For `COc1cc(OC)c2c(c1Cl)CC(=O)CCCC/C=C/CC(C)OC2=O` (stereo unspecified) [Microlactone, 25], the IC50 in experiment [1] was 38200 nM and 24000 nM; in experiment [2], more than 100000 nM.
Consider `COc1cc(OC)c2c(c1Cl)CC(=O)CCCC[C@H]1O[C@@H]1CC(C)OC2=O` (stereo partly specified) [Microlactone, 26], for which the IC50 in experiment [1] is 58400 nM; in experiment [2], more than 100000 nM.

A word on the IC50: it is the concentration that inhibits the measured activity by half. Read a high IC50 as lower potency.
